± gives the expanded uncertainty stated by the source.
Assays:
[1] = Molar enthalpy of transition or fusion; details: Crystal; DSC
[2] = Crystal; DTA

Row | SMILES | Molar enthalpy of transition or fusion [1] [kcal/mol] | Normal melting temperature [2] [°C]
1 | CC(=O)[O-].[Cs+] [cesium acetate] | 2.63 ± 0.0956 | 191.6 ± 0.4
2 | CC(=O)[O-].[Li+] [lithium acetate] | 3.01 ± 0.0956 | 283.5 ± 0.4
3 | CC(=O)[O-].[K+] [potassium ethanoate] | 2.87 ± 0.0956 | 305.2 ± 0.4
4 | CC(=O)[O-].[Rb+] [rubidium acetate] | 2.13 ± 0.191 | 240.5 ± 0.4
5 | CC(=O)[O-].[Na+] [sodium ethanoate] | 4.16 ± 0.0956 | 329.4 ± 0.4

Reference: the NIST ThermoML archive (doi:10.1016/j.tca.2004.11.004)
